Measured values from publication PMC4448982, “LP-925219 maximizes urinary glucose excretion in mice by inhibiting both renal SGLT1 and SGLT2” (Pharmacology Research & Perspectives, 2015).

Columns and labels:
human SGLT2 = target: T1, human SGLT2 (Homo sapiens, UniProt P31639); assay: Compound washout study, cells expressing human SGLT2
T1 sequence (P31639 1-672): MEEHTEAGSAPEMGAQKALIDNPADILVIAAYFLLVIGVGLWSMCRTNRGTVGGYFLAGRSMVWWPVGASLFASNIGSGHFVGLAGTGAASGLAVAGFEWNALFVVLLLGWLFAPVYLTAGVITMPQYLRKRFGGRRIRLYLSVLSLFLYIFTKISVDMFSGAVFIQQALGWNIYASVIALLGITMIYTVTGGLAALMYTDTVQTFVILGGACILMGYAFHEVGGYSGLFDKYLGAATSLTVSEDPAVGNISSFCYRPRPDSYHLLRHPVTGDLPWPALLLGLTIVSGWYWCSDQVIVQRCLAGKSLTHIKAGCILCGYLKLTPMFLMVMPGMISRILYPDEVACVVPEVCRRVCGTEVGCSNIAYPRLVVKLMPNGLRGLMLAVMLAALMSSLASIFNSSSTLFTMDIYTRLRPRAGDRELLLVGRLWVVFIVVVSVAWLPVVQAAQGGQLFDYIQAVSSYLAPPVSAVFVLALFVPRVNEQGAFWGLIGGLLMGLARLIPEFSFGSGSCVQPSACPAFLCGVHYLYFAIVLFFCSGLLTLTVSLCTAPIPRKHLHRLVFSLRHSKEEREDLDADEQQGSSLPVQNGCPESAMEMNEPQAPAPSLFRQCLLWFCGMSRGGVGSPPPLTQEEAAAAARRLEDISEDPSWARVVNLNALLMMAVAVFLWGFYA
Text: (§1) Cells expressing human SGLT2 were studied using the above protocol. […] Cells expressing human SGLT2 were studied using the above protocol.

renal SGLT1 and SGLT2 = target: T2, renal SGLT1 and SGLT2 (Mus musculus, UniProt Q8C3K6); assay: Metabolic cage study, 24-h urinary glucose excretion; format: in vivo; conditions: SGLT2 KO mice
T2 construct: from tissue; host or cells: kidney of living WT, SGLT1 KO, SGLT2 KO and DKO mice (C57BL/6J-129 SvEv hybrid)
T2 sequence (Q8C3K6 1-665): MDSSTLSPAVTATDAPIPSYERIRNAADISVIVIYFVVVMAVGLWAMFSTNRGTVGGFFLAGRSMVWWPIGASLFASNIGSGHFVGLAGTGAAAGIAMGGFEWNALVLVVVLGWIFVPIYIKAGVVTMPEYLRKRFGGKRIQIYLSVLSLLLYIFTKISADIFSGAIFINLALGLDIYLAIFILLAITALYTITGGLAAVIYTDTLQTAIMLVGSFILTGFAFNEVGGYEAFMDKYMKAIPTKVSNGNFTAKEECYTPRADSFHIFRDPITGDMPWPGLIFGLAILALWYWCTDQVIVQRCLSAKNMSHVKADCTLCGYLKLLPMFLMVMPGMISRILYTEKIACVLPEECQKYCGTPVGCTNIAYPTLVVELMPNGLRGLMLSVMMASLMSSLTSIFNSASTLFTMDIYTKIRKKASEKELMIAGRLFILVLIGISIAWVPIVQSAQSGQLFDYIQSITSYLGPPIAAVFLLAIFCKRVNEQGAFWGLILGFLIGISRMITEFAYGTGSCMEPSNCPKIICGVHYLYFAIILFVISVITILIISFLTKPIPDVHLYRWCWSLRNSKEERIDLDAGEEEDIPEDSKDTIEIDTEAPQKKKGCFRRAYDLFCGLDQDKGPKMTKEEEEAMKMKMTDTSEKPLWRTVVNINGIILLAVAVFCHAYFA
Experimental: Mice were individually housed in Nalgene Metabolic Cages for Mice (product MTB-0311), and 24-h urine collections were made to determine 24-h UGE, as described previously (Powell et al. [2013a]). Some mice received a single dose of either LP-925219 or vehicle by oral gavage at 8 am immediately prior to initiating collection of 24-h urine samples; in addition, some mice received two doses of either vehicle or 60 mg/kg LP-925219 by oral gavage, with the first dose given at 8 am and the second dose given at 6 pm, nearly midway through the collection of the 24-h urine sample.
Figure 5 UGE values in mice treated with a single dose of LP-925219. After DKO, S2 KO, S1 KO, and WT littermate mice received, by a single oral gavage at 8 am, either vehicle (Veh) or LP-925219 at a dose of (A) 1 mg/kg; (B) 10 mg/kg; or (C) 60 mg/kg, the mice were placed in metabolic cages and their urine was collected over the next 24 h and analyzed for total glucose. N = 5–11 mice/group. UGE < DKO UGE: *P < 0.05, **P < 0.01, ***P < 0.001; LP-925219 UGE > Veh UGE for the same group, ^^^P < 0.001. UGE, urinary glucose excretion.
Figure 6 UGE values in mice treated with two doses of 60 mg/kg LP-925219. DKO, S2 KO, S1 KO, and WT littermate mice received, by oral gavage at 8 am and then again at 6 pm, either vehicle (Veh) or LP-925219 at a dose of 60 mg/kg. The mice were placed in metabolic cages after the first gavage and their urine was collected over the next 24 h and analyzed for total glucose. N = 6–11 mice/group. UGE < DKO UGE, ***P < 0.001; LP-925219 UGE > Veh UGE for the same group, ^^^P < 0.001. UGE, urinary glucose excretion.

human SGLT1 = target: T3, human SGLT1 (Homo sapiens, UniProt P13866); assay: Compound washout study, cells expressing human SGLT1
T3 sequence (P13866 1-664): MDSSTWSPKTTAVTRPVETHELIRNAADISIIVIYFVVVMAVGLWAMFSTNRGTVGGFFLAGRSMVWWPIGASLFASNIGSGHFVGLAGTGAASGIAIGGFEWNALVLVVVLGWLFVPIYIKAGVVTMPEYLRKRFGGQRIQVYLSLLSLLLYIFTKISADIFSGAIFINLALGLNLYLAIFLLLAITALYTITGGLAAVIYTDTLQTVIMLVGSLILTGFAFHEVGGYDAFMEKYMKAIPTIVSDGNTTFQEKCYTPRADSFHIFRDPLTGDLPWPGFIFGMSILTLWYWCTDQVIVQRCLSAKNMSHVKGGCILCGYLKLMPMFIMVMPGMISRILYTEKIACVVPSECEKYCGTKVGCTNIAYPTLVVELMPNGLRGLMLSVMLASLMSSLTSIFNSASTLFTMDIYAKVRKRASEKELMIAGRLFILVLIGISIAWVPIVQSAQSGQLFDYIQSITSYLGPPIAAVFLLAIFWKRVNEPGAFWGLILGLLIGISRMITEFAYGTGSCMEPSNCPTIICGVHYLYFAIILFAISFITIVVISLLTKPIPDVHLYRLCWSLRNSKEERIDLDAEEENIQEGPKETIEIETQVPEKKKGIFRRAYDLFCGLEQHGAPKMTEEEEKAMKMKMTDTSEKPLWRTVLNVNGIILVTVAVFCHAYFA
Text: as §1

[1] = washout protocol, 18-20 h recovery after 30 min treatment

## COc1ccc(Cc2cc([C@@H]3O[C@H](SC)[C@@H](O)[C@H](O)[C@H]3O)ccc2Cl)cc1 [LP-925219]
Human SGLT2; no wash protocol
  IC50: 2.2 nM
Human SGLT2; [1]
  IC50: 6.8 nM
Renal SGLT1 and SGLT2; single oral dose 60 mg/kg, maximal = vehicle-treated DKO
  24-h UGE: 80 ± 18 % of maximal
Renal SGLT1 and SGLT2; single oral dose 1 or 10 mg/kg, vs vehicle
  24-h UGE: did not show a significant increase
Renal SGLT1 and SGLT2; two oral 60 mg/kg doses (8 am, 6 pm)
  24-h UGE: 89 ± 16 % of maximal
Human SGLT1; no wash protocol
  IC50: 13 nM
Human SGLT1; [1]
  IC50: 1310 nM
